The results in this text go back to article PMC11123841, “Discovery and Synthesis of Hydroxy-L-Proline Blockers of the Neutral Amino Acid Transporters SLC1A4 (ASCT1) and SLC1A5 (ASCT2)” (Molecules, 2024).

What all share (type): cell-based
Assay [1] deals with T1, SLC1A4 (Homo sapiens, UniProt P43007).
T1 construct: expressed in transfected cells; host or cells: Xenopus laevis oocytes (cRNA injection)
T1 sequence (P43007 1-532): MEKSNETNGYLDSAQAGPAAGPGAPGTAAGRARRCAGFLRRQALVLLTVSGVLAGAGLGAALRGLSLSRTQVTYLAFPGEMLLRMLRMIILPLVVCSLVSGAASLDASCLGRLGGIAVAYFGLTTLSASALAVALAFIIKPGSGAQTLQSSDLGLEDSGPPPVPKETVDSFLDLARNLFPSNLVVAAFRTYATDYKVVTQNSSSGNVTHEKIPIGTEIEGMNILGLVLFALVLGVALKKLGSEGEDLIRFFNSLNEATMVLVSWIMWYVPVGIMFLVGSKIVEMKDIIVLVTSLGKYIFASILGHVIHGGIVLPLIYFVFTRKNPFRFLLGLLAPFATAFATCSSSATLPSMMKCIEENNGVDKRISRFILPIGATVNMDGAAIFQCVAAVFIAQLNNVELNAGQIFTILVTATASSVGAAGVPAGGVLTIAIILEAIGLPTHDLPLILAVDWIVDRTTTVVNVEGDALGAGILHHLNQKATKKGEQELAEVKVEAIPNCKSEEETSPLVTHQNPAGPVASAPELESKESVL
Put plainly: [3H]L-alanine uptake block in oocytes. As for the experimental part: (§1) Uptake was halted by washing 3 times with 4 °C ND96 buffer. Oocytes were then lysed in 0.1% Triton X-100, and radioactivity was counted via liquid scintillation. Dose response curves were generated by fitting fractional inhibition (I) to the expression I = Imax × [inhibitor]/([inhibitor] + IC50).

For assay [2], the target named is T1, SLC1A4. The assay is described as follows: [3H]L-alanine heteroexchange (trans-stimulation) in preloaded oocytes. The following applies: 3 µM BPOHP, 1 mM L-alanine. As for the experimental part: as §1
Assay [3] addresses T1, SLC1A4. The assay is described as follows: [3H]D-serine uptake in oocytes. As to conditions: [3H]D-serine 100 nM, 10 µM BPOHP. As for the experimental part:
page 6: vi Figure SM-3A. […] with no effect on SL[…] neutral amino acid transporters SLC38A1(ATA1), SLC38A2 (ATA2), and SLC38A4 (ATA3). SM-3B. […] by application of 10μM BPOHP. Figure SM-4. Tosic acid approach to compound 12c. (i) Tosylic acid 0.1M in THF 60◦C. (ii) […] S.Figure 3 A. […] SLC38A1(ATA1), SLC38A2 (ATA2), and SLC38A4 (ATA3). B. […] SLC7A10+SLC3A2 (asc1+4F2). […]

For `O=C(O)[C@H]1NC[C@@H](OCc2ccc(-c3ccccc3)cc2)[C@@H]1O` [14e], the IC50 (as a rule, the midpoint of a concentration-inhibition curve) against SLC1A4 [1] came to 0.128 µM. On SLC1A4 [2], the “[3H]L-alanine exchange” value is “No exchange was detected”. Moreover, the “effect on [3H]D-serine uptake” value at SLC1A4 [3] is recorded as “blocked”.
